± gives the expanded uncertainty stated by the source.
Experiment: excess molar enthalpy (molar enthalpy of mixing); xn = mol fraction of the nth substance listed
Details: 308.15 K, 101 kPa, Liquid, Flow calorimetry

C1CCNCC1 [piperidine] + C1CCCCC1
Details | excess molar enthalpy [kcal/mol]
x2 = 0.101 | 0.0617 ± 0.00263
x2 = 0.201 | 0.114 ± 0.00287
x2 = 0.3 | 0.155 ± 0.00287
x2 = 0.4 | 0.186 ± 0.00287
x2 = 0.499 | 0.202 ± 0.00287
x2 = 0.601 | 0.202 ± 0.00287
x2 = 0.679 | 0.19 ± 0.00287
x2 = 0.801 | 0.152 ± 0.00287
x2 = 0.901 | 0.0935 ± 0.00287

C1CCNCC1 [piperidine] + C1CCOCC1
Details | excess molar enthalpy [kcal/mol]
x2 = 0.102 | 0.0249 ± 0.00239
x2 = 0.196 | 0.0435 ± 0.00239
x2 = 0.301 | 0.0581 ± 0.00239
x2 = 0.397 | 0.0667 ± 0.00239
x2 = 0.497 | 0.0698 ± 0.00239
x2 = 0.598 | 0.0679 ± 0.00239
x2 = 0.7 | 0.06 ± 0.00239
x2 = 0.801 | 0.0464 ± 0.00239
x2 = 0.893 | 0.0277 ± 0.00239

C1CCOCC1 [tetrahydropyran] + C1CCCCC1
Details | excess molar enthalpy [kcal/mol]
x2 = 0.101 | 0.0375 ± 0.00263
x2 = 0.2 | 0.0703 ± 0.00263
x2 = 0.3 | 0.0985 ± 0.00263
x2 = 0.4 | 0.117 ± 0.00263
x2 = 0.499 | 0.126 ± 0.00263
x2 = 0.606 | 0.124 ± 0.00263
x2 = 0.699 | 0.11 ± 0.00263
x2 = 0.8 | 0.0848 ± 0.00263
x2 = 0.9 | 0.0473 ± 0.00263
